Here are results for 24 compounds from patent publication US20060241037A1, “Compositions comprising trefoil factor family peptides and/or mucoadhesives and proton pump ihhibitor prodrugs” (ALLERGAN INC., priority 2003, published 2006).

Structures are written as SMILES.

Data set [1] can be described thus: Pharmacokinetic study in dogs (oral / intravenous), systemic half-life by LC-MS/MS. It is filed as in vivo, dogs (beagle). On the set-up: key to T1/2 Prodrug: NC: plasma concentration of prodrug was too low to calculate half-life, or undetected. As to conditions: for T1/2 Prodrug / T1/2 PPI / half-life: Dog, SD in parenthesis; for T1/2 Prodrug: systemic half-life of intact prodrug; for T1/2 PPI / half-life: systemic half-life of the proton pump inhibitor; for t1/2: systemic half-life of parent PPI in dogs after oral administration; for half-life: beagle, blood, po, read-out: T1/2 PPI (converted). Here is the method: (§1) Blood concentrations of the compounds omeprazole, lansoprazole, pantoprazole, rabeprazole, and test compounds were quantified using an achiral liquid chromatography tandem mass spectrometry method (LC-MS/MS). Systemic pharmacokinetic parameters were determined for omeprazole or lansoprazole using non-compartmental analysis in Watson® version 6.3, available from InnaPhase Corporation, Philadelphia, Pa.

Data set [2] in a line: Pharmacokinetic study in rats (oral / intravenous), systemic half-life by LC-MS/MS. It is filed as in vivo, rats (Sprague-Dawley). The conditions noted are these: Rat, SD in parenthesis; for T1/2 Prodrug: systemic half-life of intact prodrug; for T1/2 PPI: systemic half-life of the proton pump inhibitor. On the set-up: key to T1/2 Prodrug: NC: plasma concentration of prodrug was too low to calculate half-life, or undetected. Here is the method:
as §1

A further data set deals with Caco-2 cells. Description: Membrane permeability (Papp) across Caco-2 cell monolayer, apical to basolateral. It is filed as in vitro ADME. As to conditions: Caco-2, apical to basolateral, 10 μM, 37° C. As to the method:
Determination of membrane permeability in all examples described herein was accomplished by the following procedure. This procedure is also used to determine whether a given prodrug falls within the scope of those claims given herein which relate to membrane permeability.
Caco-2 cells were seeded on Costar™ 12 mm diameter, 0.4 μm pore size transwell filters, and were cultured at 37° C., 5% CO2 in a humidified tissue culture chamber.
DMEM was equilibrated as a transport buffer in 37° C. water bath an hour before experiment. The cells were then equilibrated in transport buffer for 1 hr at 37° C.
Dosing solution (10 μM) was prepared by adding a 20 μL aliquot of a 10 mM stock solution of the prodrug to 20 mL of transport buffer.
Transport across Caco-2 cell monolayer was measured at 37° C., in the apical to basolateral direction (n=3).
Transport buffer was removed from both apical and basolateral compartment of filters. Dosing solution (0.2 mL) was added to the apical compartment of the cell layers on transwell filters, and 0.8 ml fresh pre-warmed transport buffer was added to basolateral compartment. Timing was started for transport, and at 5, 20, and 60 min after transport started, sample fluid (400 μL) was collected from the basolateral compartment. Fresh transport buffer (400 μL) was added back to the basolateral compartment, and the fluid was thoroughly mixed.
The apparent permeability coefficient (Papp, cm/sec), otherwise known herein as the membrane permeability, is determined from the following relationship: Papp=J/(ACo) where J (pmol/min) is the transport rate, meaning the rate of prodrug movement through the cell layer, A (cm^2) is the filter surface area, and Co (μM) is the initial dosing concentration.
Lucifer yellow (LY) was used as a paracellular permeability reference standard to determine integrity of cell layers used in the experiments. […] Fluorescence level in basolateral fluid sampled at 5, 20, and 60 min post dose was determined using Fluostar Galaxy (BMG Labtechnologies, Durham, N.C.) at excitation/emission wavelengths of 485/520 nm. […]
In general terms: Passage across Caco-2 layers is used to estimate intestinal permeability.

Consider `COCCCOc1ccnc(C[S+]([O-])c2nc3ccccc3n2S(=O)(=O)c2c(C)cc(OCC(=O)O)cc2C)c1C` (stereo not shown) [Compound 32], for which, in data set [1], the T1/2 Prodrug was 31.6 min and the T1/2 PPI is 91.2 min.
As for `COc1ccc(S(=O)(=O)n2c([S+]([O-])Cc3nccc(OCC(F)(F)F)c3C)nc3ccccc32)cc1CCC(=O)O` (stereo not shown) [Compound 38], in data set [2] (in h), the “T1/2 Prodrug” value is 1.04 (0.35) and the “T1/2 PPI” value is given as 1.43 (0.42).
With `Cc1ccc(S(=O)(=O)n2c([S+]([O-])Cc3nccc(OCC(F)(F)F)c3C)nc3ccccc32)cc1CCC(=O)O` (stereo not shown) [Compound 19], in data set [1], the T1/2 Prodrug is 110 min and the T1/2 PPI was 29 min.
As to `COc1ccc(C(=O)O)cc1S(=O)(=O)n1c([S+]([O-])Cc2nccc(OCC(F)(F)F)c2C)nc2ccccc21` (stereo not shown) [Compound 14], in data set [1], the T1/2 Prodrug is 7.08 min and the T1/2 PPI was 83.4 min. Moreover, the “T1/2 PPI” value in data set [2] (in h) is 0.536 (0.217).
Take `Cc1c(OCC(F)(F)F)ccnc1C[S+]([O-])c1nc2ccccc2n1S(=O)(=O)c1ccc(CC(=O)O)cc1` (stereo not shown) [Compound 9]: in data set [1], the “T1/2 Prodrug” value was “NC”, the T1/2 PPI is 53.6 min and the t1/2 was 53.4 min. In addition, in the data set on Caco-2 cells, the Permeability stood at 0.34 ×10⁻⁶ cm/s. For the same compound, the “T1/2 Prodrug” value in data set [2] is reported as “NC”. The “T1/2 PPI” value in data set [2] (in h) was 0.341 (0.151).
`Cc1ccc(C(=O)O)cc1S(=O)(=O)n1c([S+]([O-])Cc2nccc(OCC(F)(F)F)c2C)nc2ccccc21` (stereo not shown) [Compound 13]: the T1/2 Prodrug is 7.32 min in data set [1] and “NC” in data set [2]. Moreover, the results for the T1/2 PPI in data set [1] and in data set [2] (in h) were 106 min and 2.35 (1.22), respectively.
Take `Cc1cc(C(=O)O)ccc1S(=O)(=O)n1c([S+]([O-])Cc2nccc(OCC(F)(F)F)c2C)nc2ccccc21` (stereo not shown) [Compound 37]: in data set [2], the “T1/2 Prodrug” value is recorded as “NC”. Also, the “T1/2 PPI” value in data set [2] (in h) is recorded as 2.19 (0.80).
Consider `Cc1c(OCC(F)(F)F)ccnc1C[S+]([O-])c1nc2ccccc2n1S(=O)(=O)c1ccc(C(=O)O)cc1` (stereo not shown) [Compound 18], for which, in data set [1], the T1/2 Prodrug was 5.39 min and the T1/2 PPI was 54.5 min.
Turning to `Cc1cc(OCC(=O)O)cc(C)c1S(=O)(=O)n1c([S+]([O-])Cc2nccc(OCC(F)(F)F)c2C)nc2ccccc21` (stereo not shown) [Compound 34], the “T1/2 Prodrug” value in data set [2] is “NC”. Further, the “T1/2 PPI” value in data set [2] (in h) was 1.11 (0.71).
As for `Cc1cc(OCC(=O)O)cc(C(C)C)c1S(=O)(=O)n1c([S+]([O-])Cc2nccc(OCC(F)(F)F)c2C)nc2ccccc21` (stereo not shown) [Compound 17], in data set [1], the T1/2 Prodrug was 89.4 min and the T1/2 PPI is 67.8 min.
As to `COc1ccc2[nH]c([S+]([O-])Cc3ncc(C)c(OC)c3C)nc2c1` (stereo not shown) [Omeprazole, reference compound], in data set [1], the half-life is 41.8 min and the t1/2 was 42 min.
In the case of `Cc1c(OCC(F)(F)F)ccnc1C[S+]([O-])c1nc2ccccc2n1S(=O)(=O)c1ccc(CC(=O)O)cc1C(C)C` (stereo not shown) [Compound 15], in data set [1], the “T1/2 Prodrug” value was “NC” and the T1/2 PPI is 55.4 min.
Regarding `Cc1c(OCC(F)(F)F)ccnc1C[S+]([O-])c1nc2ccccc2n1S(=O)(=O)c1ccc(CC(=O)O)c(CC(=O)O)c1` (stereo not shown) [Compound 12], in data set [1], the “T1/2 Prodrug” value was “NC” and the T1/2 PPI was 55.9 min.
For the compound `COCCCOc1ccnc(C[S+]([O-])c2nc3ccccc3n2S(=O)(=O)c2ccc(C(=O)O)cc2)c1C` (stereo not shown) [Compound 33], in data set [1], the T1/2 Prodrug was 44.8 min and the T1/2 PPI is 53.6 min.
For `Cc1c(OCC(F)(F)F)ccnc1C[S+]([O-])c1nc2ccccc2n1S(=O)(=O)c1ccc(OCC(C)(C)C(=O)O)cc1` (stereo not shown) [Compound 11], the “T1/2 Prodrug” value in data set [1] and in data set [2] was “NC” in each case. For the same compound, the figures for the “T1/2 PPI” value in data set [1] and in data set [2] (in h) were 0.873 (0.288) and 0.933 (1.009), respectively.
On to `COCCCOc1ccnc(C[S+]([O-])c2nc3ccccc3n2S(=O)(=O)c2cccc(C(=O)O)c2)c1C` (stereo not shown) [Compound 30], for which, in data set [1], the T1/2 Prodrug was 67.2 min and the T1/2 PPI was 29.5 min.
Turning to `Cc1c(OCC(F)(F)F)ccnc1C[S+]([O-])c1nc2ccccc2n1S(=O)(=O)c1cccc(C(=O)O)c1` (stereo not shown) [Compound 7], in data set [1], the T1/2 Prodrug was 12.4 min, the T1/2 PPI was 53.6 min and the t1/2 is 53.4 min. This compound also displayed a Permeability in the data set with Caco-2 cells of 0.16 ×10⁻⁶ cm/s. The “T1/2 Prodrug” value in data set [2] is on record as “NC”. Further, the “T1/2 PPI” value in data set [2] (in h) is 1.93 (1.41).
Consider `Cc1c(OCC(F)(F)F)ccnc1C[S+]([O-])c1nc2ccccc2n1S(=O)(=O)c1ccc(OCC(=O)O)cc1` (stereo not shown) [Compound 10], for which, in data set [1], the “T1/2 Prodrug” value was “NC” and the “T1/2 PPI” value is on record as 0.989 (0.307).
Take `COc1ccc(S(=O)(=O)n2c([S+]([O-])Cc3nccc(OCC(F)(F)F)c3C)nc3ccccc32)cc1C(=O)O` (stereo not shown) [Compound 8]: in data set [1], the “T1/2 Prodrug” value is “NC”, the T1/2 PPI is 64.8 min and the t1/2 was 66 min. In the data set with Caco-2 cells, this compound showed a Permeability of 0.23 ×10⁻⁶ cm/s. Also, in data set [2], the “T1/2 Prodrug” value was “NC”. In addition, in data set [2] (in h), the “T1/2 PPI” value is recorded as 1.80 (1.20).
Turning to `Cc1c(OCC(F)(F)F)ccnc1C[S+]([O-])c1nc2ccccc2[nH]1` (stereo not shown) [Lansoprazole, reference compound], in data set [1], the half-life was 34.4 min and the t1/2 was 34.2 min.
Regarding `Cc1c(OCC(F)(F)F)ccnc1C[S+]([O-])c1nc2ccccc2n1S(=O)(=O)c1ccc(C(=O)O)cc1` (stereo not shown) [Compound 36], the “T1/2 Prodrug” value in data set [2] is given as “NC”. Besides, in data set [2] (in h), the “T1/2 PPI” value is recorded as 0.389 (0.085).
Consider `COCCCOc1ccnc(C[S+]([O-])c2nc3ccccc3n2S(=O)(=O)c2cc(C(=O)O)ccc2C)c1C` (stereo not shown) [Compound 31], for which, in data set [1], the T1/2 Prodrug is 50.6 min and the T1/2 PPI is 51.3 min.
`Cc1c(OCC(F)(F)F)ccnc1C[S+]([O-])c1nc2ccccc2n1S(=O)(=O)c1ccc(OCC(=O)O)c(OCC(=O)O)c1` (stereo not shown) [Compound 35]: the “T1/2 Prodrug” value in data set [2] is reported as “NC”. Further, the “T1/2 PPI” value in data set [2] (in h) is 1.84 (0.87).
As for `Cc1c(OCC(F)(F)F)ccnc1C[S+]([O-])c1nc2ccccc2n1S(=O)(=O)c1ccc(C(=O)O)c(OCC(=O)O)c1` (stereo not shown) [Compound 16], the “T1/2 Prodrug” value in data set [1] and in data set [2] was “NC” each time. For the same compound, the T1/2 PPI in data set [1] is 60 min; in data set [2] (in h), 1.86 (0.74).
